From patent EP0908457B1, “3-(1,2-benzisothiazol- and isoxazol-5-Y1)-2,4(1H,3H)-pyrimidinedione or thione and 3-(1,2-benzisothiazol- and isoxazol-5-y1)-4(3H)-pyrimidinone or thione herbicidal agents” (BASF AKTIENGESELLSCHAFT, priority 1997, dated 1999)

Columns and labels:
[1] = tested on: Cyperus serotinus, Rottb.; experiment: Preemergence weed control under flooded paddy conditions, CYPSE (Flatsedge); format: in vivo; conditions: preemergence, rated three to four weeks after treatment; for herbicidal effect rating, CYPSE: meaning of each grade not given here
[2] = tested on: Monochoria vaginalis, Presl.; experiment: Preemergence weed control under flooded paddy conditions, MOOVA (Monochoria); format: in vivo; conditions: preemergence, flooded paddy, rated three to four weeks after treatment; for herbicidal effect rating, MOOVA: meaning of each grade not given here
[3] = tested on: Cyperus iria; experiment: Preemergence weed control under flooded paddy conditions, CYPIR (Rice Flatsedge); format: in vivo; conditions: preemergence, flooded paddy, rated three to four weeks after treatment; for herbicidal effect rating, CYPIR: meaning of each grade not given here
[4] = tested on: Sagittaria pygmaea, L.; experiment: Preemergence weed control under flooded paddy conditions, SAGPY (Arrowhead (Pygmaea)); format: in vivo; conditions: preemergence, flooded paddy, rated three to four weeks after treatment; for herbicidal effect rating, SAGPY: meaning of each grade not given here
[5] = tested on: Echinochloa oryzoides (Ard.) Fritsch.; experiment: Preemergence weed control under flooded paddy conditions, ECHORC (Watergrass (Calif.)); format: in vivo; conditions: preemergence, flooded paddy, rated three to four weeks after treatment; for herbicidal effect rating, ECHORC: meaning of each grade not given here
[6] = tested on: Oryza sativa, (L.) Tebonnet; experiment: Rice tolerance to post-transplant applications under flooded paddy conditions (Example 187), ORYSAT (Rice, Tebonnet); conditions: rated three to four weeks after treatment; for herbicidal effect rating ORYSAT: meaning of each grade not given here

Cn1c(C(F)(F)F)cc(=O)n(-c2ccc3snc(-c4ccc(OCC(=O)O)cc4)c3c2)c1=O [Example 281, Acetic acid, {p-{5-[3,6-dihydro-3-methyl-2,6-dioxo-4-(trifluoromethyl)-1(2H)-pyrimidinyl]-1,2-benzisothiazol-3-yl}phenoxy}-]
CYPSE herbicidal effect rating ([1]; Rate 0.0320 kg/ha): 9.0
CYPSE herbicidal effect rating ([1]; Rate 0.0620 kg/ha): 9.0
CYPSE herbicidal effect rating ([1]; Rate 0.1250 kg/ha): 9.0
CYPSE herbicidal effect rating ([1]; Rate 0.2500 kg/ha): 9.0
CYPSE herbicidal effect rating ([1]; Rate 0.5000 kg/ha): 9.0
MOOVA herbicidal effect rating ([2]; Rate 0.0320 kg/ha): 9.0
MOOVA herbicidal effect rating ([2]; Rate 0.0620 kg/ha): 9.0
MOOVA herbicidal effect rating ([2]; Rate 0.1250 kg/ha): 9.0
MOOVA herbicidal effect rating ([2]; Rate 0.2500 kg/ha): 9.0
MOOVA herbicidal effect rating ([2]; Rate 0.5000 kg/ha): 9.0
CYPIR herbicidal effect rating ([3]; Rate 0.0320 kg/ha): 4.0
CYPIR herbicidal effect rating ([3]; Rate 0.0620 kg/ha): 8.0
CYPIR herbicidal effect rating ([3]; Rate 0.1250 kg/ha): 9.0
CYPIR herbicidal effect rating ([3]; Rate 0.2500 kg/ha): 9.0
CYPIR herbicidal effect rating ([3]; Rate 0.5000 kg/ha): 9.0
SAGPY herbicidal effect rating ([4]; Rate 0.0320 kg/ha): 0.0
SAGPY herbicidal effect rating ([4]; Rate 0.0620 kg/ha): 0.0
SAGPY herbicidal effect rating ([4]; Rate 0.1250 kg/ha): 2.0
SAGPY herbicidal effect rating ([4]; Rate 0.2500 kg/ha): 8.0
SAGPY herbicidal effect rating ([4]; Rate 0.5000 kg/ha): 9.0
ECHORC herbicidal effect rating ([5]; Rate 0.0320 kg/ha): 0.0
ECHORC herbicidal effect rating ([5]; Rate 0.0620 kg/ha): 5.9
ECHORC herbicidal effect rating ([5]; Rate 0.1250 kg/ha): 7.1
ECHORC herbicidal effect rating ([5]; Rate 0.2500 kg/ha): 9.0
ECHORC herbicidal effect rating ([5]; Rate 0.5000 kg/ha): 7.0
ORYSAT herbicidal effect rating ([6]; Rate 0.0320 kg/ha): 0.0
ORYSAT herbicidal effect rating ([6]; Rate 0.0620 kg/ha): 2.0
ORYSAT herbicidal effect rating ([6]; Rate 0.1250 kg/ha): 4.0
ORYSAT herbicidal effect rating ([6]; Rate 0.2500 kg/ha): 6.0
ORYSAT herbicidal effect rating ([6]; Rate 0.5000 kg/ha): 4.0

CC(=O)Nc1nnc(S(=O)(=O)NC(=O)COc2ccc(C)cc2-c2nsc3ccc(-n4c(=O)cc(C(F)(F)F)n(C)c4=O)cc23)s1 [Example 269, Acetamide, N-[(5-acetamido-1,3,4-thiadiazol-2-yl)sulfonyl]-2-{{2-{5-[3,6-dihydro-3-methyl-2,6-dioxo-4-(trifluoromethyl)-1(2H)-pyrimidinyl]-1,2-benzisothiazol-3-yl}-p-tolyl}oxy}-]
CYPSE herbicidal effect rating ([1]; Rate 0.2500 kg/ha): 0.0
CYPSE herbicidal effect rating ([1]; Rate 0.5000 kg/ha): 0.0
MOOVA herbicidal effect rating ([2]; Rate 0.2500 kg/ha): 0.0
MOOVA herbicidal effect rating ([2]; Rate 0.5000 kg/ha): 9.0
CYPIR herbicidal effect rating ([3]; Rate 0.2500 kg/ha): 0.0
CYPIR herbicidal effect rating ([3]; Rate 0.5000 kg/ha): 0.0
SAGPY herbicidal effect rating ([4]; Rate 0.2500 kg/ha): 0.0
SAGPY herbicidal effect rating ([4]; Rate 0.5000 kg/ha): 0.0
ECHORC herbicidal effect rating ([5]; Rate 0.2500 kg/ha): 0.0
ECHORC herbicidal effect rating ([5]; Rate 0.5000 kg/ha): 4.0
ORYSAT herbicidal effect rating ([6]; Rate 0.2500 kg/ha): 0.0
ORYSAT herbicidal effect rating ([6]; Rate 0.5000 kg/ha): 0.0

CC(C)c1nsc2ccc(-n3c(=O)cc(C(F)(F)F)n(C)c3=O)cc12 [Example 499, 2,4(1H,3H)-Pyrimidinedione, 3-(3-isopropyl-1,2-benzisothiazol-5-yl)-1-methyl-6-(trifluoromethyl)-]
CYPSE herbicidal rating ([1]; 0.0320 kg/ha): 9.0
CYPSE herbicidal rating ([1]; 0.0620 kg/ha): 9.0
CYPSE herbicidal rating ([1]; 0.1250 kg/ha): 9.0
CYPSE herbicidal rating ([1]; 0.2500 kg/ha): 9.0
MOOVA herbicidal rating ([2]; 0.0320 kg/ha): 8.0
MOOVA herbicidal rating ([2]; 0.0620 kg/ha): 9.0
MOOVA herbicidal rating ([2]; 0.1250 kg/ha): 9.0
MOOVA herbicidal rating ([2]; 0.2500 kg/ha): 9.0
CYPIR herbicidal rating ([3]; 0.0320 kg/ha): 8.0
CYPIR herbicidal rating ([3]; 0.0620 kg/ha): 9.0
CYPIR herbicidal rating ([3]; 0.1250 kg/ha): 9.0
CYPIR herbicidal rating ([3]; 0.2500 kg/ha): 9.0
SAGPY herbicidal rating ([4]; 0.0320 kg/ha): 8.0
SAGPY herbicidal rating ([4]; 0.0620 kg/ha): 9.0
SAGPY herbicidal rating ([4]; 0.1250 kg/ha): 9.0
SAGPY herbicidal rating ([4]; 0.2500 kg/ha): 9.0
ECHORC herbicidal rating ([5]; 0.0320 kg/ha): 7.5
ECHORC herbicidal rating ([5]; 0.0620 kg/ha): 9.0
ECHORC herbicidal rating ([5]; 0.1250 kg/ha): 9.0
ECHORC herbicidal rating ([5]; 0.2500 kg/ha): 9.0
ORYSAT herbicidal rating (rice tolerance) ([6]; 0.0320 kg/ha): 6.5
ORYSAT herbicidal rating (rice tolerance) ([6]; 0.0620 kg/ha): 8.0
ORYSAT herbicidal rating (rice tolerance) ([6]; 0.1250 kg/ha): 7.5
ORYSAT herbicidal rating (rice tolerance) ([6]; 0.2500 kg/ha): 9.0

Cn1c(C(F)(F)F)cc(=O)n(-c2ccc3snc(C(=O)NS(=O)(=O)c4ccc(Cl)cc4)c3c2)c1=O [Example 356, 1,2-Benzisothiazole-3-carboxamide, N-[(p-chlorophenyl)sulfonyl]-5-[3,6-dihydro-3-methyl-2,6-dioxo-4-(trifluoromethyl)-1(2H)-pyrimidinyl]-]
herbicidal effect rating, CYPSE ([1]; Rate 0.0320 kg/ha): 0.0
herbicidal effect rating, CYPSE ([1]; Rate 0.0620 kg/ha): 0.0
herbicidal effect rating, CYPSE ([1]; Rate 0.1250 kg/ha): 5.0
herbicidal effect rating, CYPSE ([1]; Rate 0.2500 kg/ha): 6.5
herbicidal effect rating, MOOVA ([2]; Rate 0.0320 kg/ha): 7.5
herbicidal effect rating, MOOVA ([2]; Rate 0.0620 kg/ha): 9.0
herbicidal effect rating, MOOVA ([2]; Rate 0.1250 kg/ha): 9.0
herbicidal effect rating, MOOVA ([2]; Rate 0.2500 kg/ha): 9.0
herbicidal effect rating, CYPIR ([3]; Rate 0.0320 kg/ha): 6.5
herbicidal effect rating, CYPIR ([3]; Rate 0.0620 kg/ha): 9.0
herbicidal effect rating, CYPIR ([3]; Rate 0.1250 kg/ha): 9.0
herbicidal effect rating, CYPIR ([3]; Rate 0.2500 kg/ha): 9.0
herbicidal effect rating, SAGPY ([4]; Rate 0.0320 kg/ha): 4.5
herbicidal effect rating, SAGPY ([4]; Rate 0.0620 kg/ha): 4.5
herbicidal effect rating, SAGPY ([4]; Rate 0.1250 kg/ha): 5.5
herbicidal effect rating, SAGPY ([4]; Rate 0.2500 kg/ha): 8.0
herbicidal effect rating, ECHORC ([5]; Rate 0.0320 kg/ha): 3.5
herbicidal effect rating, ECHORC ([5]; Rate 0.0620 kg/ha): 5.0
herbicidal effect rating, ECHORC ([5]; Rate 0.1250 kg/ha): 6.5
herbicidal effect rating, ECHORC ([5]; Rate 0.2500 kg/ha): 9.0
herbicidal effect rating ORYSAT ([6]; Rate 0.0320 kg/ha): 0.5
herbicidal effect rating ORYSAT ([6]; Rate 0.0620 kg/ha): 2.5
herbicidal effect rating ORYSAT ([6]; Rate 0.1250 kg/ha): 4.5
herbicidal effect rating ORYSAT ([6]; Rate 0.2500 kg/ha): 2.0

Cc1ccc(OCC(=O)OCCCl)c(-c2nsc3ccc(-n4c(=O)cc(C(F)(F)F)n(C)c4=O)cc23)c1 [Example 71, 2-Chloroethyl {{2-{5-[3,6-dihydro-3-methyl-2,6-dioxo-4-(trifluoromethyl)-1(2H)-pyrimidinyl]-1,2-benzisothiazol-3-yl}-p-tolyl}oxy}acetate]
herbicidal effect rating, CYPSE ([1]; 0.0313 kg/ha): 0.0
herbicidal effect rating, CYPSE ([1]; 0.0625 kg/ha): 0.0
herbicidal effect rating, CYPSE ([1]; 0.1250 kg/ha): 2.0
herbicidal effect rating, CYPSE ([1]; 0.2500 kg/ha): 9.0
herbicidal effect rating, MOOVA ([2]; 0.0313 kg/ha): 8.0
herbicidal effect rating, MOOVA ([2]; 0.0625 kg/ha): 9.0
herbicidal effect rating, MOOVA ([2]; 0.1250 kg/ha): 9.0
herbicidal effect rating, MOOVA ([2]; 0.2500 kg/ha): 9.0
herbicidal effect rating, CYPIR ([3]; 0.0313 kg/ha): 0.0
herbicidal effect rating, CYPIR ([3]; 0.0625 kg/ha): 0.0
herbicidal effect rating, CYPIR ([3]; 0.1250 kg/ha): 0.0
herbicidal effect rating, CYPIR ([3]; 0.2500 kg/ha): 2.0
herbicidal effect rating, SAGPY ([4]; 0.0313 kg/ha): 0.0
herbicidal effect rating, SAGPY ([4]; 0.0625 kg/ha): 0.0
herbicidal effect rating, SAGPY ([4]; 0.1250 kg/ha): 0.0
herbicidal effect rating, SAGPY ([4]; 0.2500 kg/ha): 4.0
herbicidal effect rating, ECHORC ([5]; 0.0313 kg/ha): 5.5
herbicidal effect rating, ECHORC ([5]; 0.0625 kg/ha): 7.5
herbicidal effect rating, ECHORC ([5]; 0.1250 kg/ha): 8.5
herbicidal effect rating, ECHORC ([5]; 0.2500 kg/ha): 9.0
herbicidal effect rating, ORYSAT (rice tolerance) ([6]; 0.0313 kg/ha): 2.0
herbicidal effect rating, ORYSAT (rice tolerance) ([6]; 0.0625 kg/ha): 3.5
herbicidal effect rating, ORYSAT (rice tolerance) ([6]; 0.1250 kg/ha): 5.5
herbicidal effect rating, ORYSAT (rice tolerance) ([6]; 0.2500 kg/ha): 7.0

CCOP(=O)(Cc1nsc2cc(F)c(-n3c(=O)cc(C(F)(F)F)n(C)c3=O)cc12)OCC [Example 377, 1,2-Benzisothiazole-3-methanephosphonic acid, 5-[3,6-dihydro-3-methyl-2,6-dioxo-4-(trifluoromethyl)-1(2H)-pyrimidinyl]-6-fluoro-, diethyl ester]
herbicidal effect rating, CYPSE ([1]; Rate 0.0320 kg/ha): 1.0
herbicidal effect rating, CYPSE ([1]; Rate 0.0620 kg/ha): 3.0
herbicidal effect rating, CYPSE ([1]; Rate 0.1250 kg/ha): 5.0
herbicidal effect rating, CYPSE ([1]; Rate 0.2500 kg/ha): 8.5
herbicidal effect rating, MOOVA ([2]; Rate 0.0320 kg/ha): 9.0
herbicidal effect rating, MOOVA ([2]; Rate 0.0620 kg/ha): 9.0
herbicidal effect rating, MOOVA ([2]; Rate 0.1250 kg/ha): 9.0
herbicidal effect rating, MOOVA ([2]; Rate 0.2500 kg/ha): 9.0
herbicidal effect rating, CYPIR ([3]; Rate 0.0320 kg/ha): 2.0
herbicidal effect rating, CYPIR ([3]; Rate 0.0620 kg/ha): 3.0
herbicidal effect rating, CYPIR ([3]; Rate 0.1250 kg/ha): 4.5
herbicidal effect rating, CYPIR ([3]; Rate 0.2500 kg/ha): 8.0
herbicidal effect rating, SAGPY ([4]; Rate 0.0320 kg/ha): 0.0
herbicidal effect rating, SAGPY ([4]; Rate 0.0620 kg/ha): 4.0
herbicidal effect rating, SAGPY ([4]; Rate 0.1250 kg/ha): 8.5
herbicidal effect rating, SAGPY ([4]; Rate 0.2500 kg/ha): 9.0
herbicidal effect rating, ECHORC ([5]; Rate 0.0320 kg/ha): 2.0
herbicidal effect rating, ECHORC ([5]; Rate 0.0620 kg/ha): 5.0
herbicidal effect rating, ECHORC ([5]; Rate 0.1250 kg/ha): 7.0
herbicidal effect rating, ECHORC ([5]; Rate 0.2500 kg/ha): 9.0
herbicidal effect rating ORYSAT ([6]; Rate 0.0320 kg/ha): 5.5
herbicidal effect rating ORYSAT ([6]; Rate 0.0620 kg/ha): 6.5
herbicidal effect rating ORYSAT ([6]; Rate 0.1250 kg/ha): 8.0
herbicidal effect rating ORYSAT ([6]; Rate 0.2500 kg/ha): 9.0
